Reference: patent US5658886A, “Acridinone derivative, compositions containing same and a method for using same to treat Chlamydia trachomatis” (Limited Liability Partnership "POLYSAN", priority 1993, dated 1997)
Where a name gives a salt, the structure may show the parent alone. Read-outs that look alike come from different tables or passages of the source.

How the values were obtained:
[1] = test system: human immunodeficiency virus (HIV); details: 0.08 mg/ml
Procedure: The cells were grown at the Russian Medical University (RMU) in tube medium--1640 containing 20% calf foetal serum at end concentration of 0.5-0.7×10^6 cells/ml. […] The cells were then incubated for 3-4 days at 37° C. with subsequent replacement of nutrient medium. On the fifth and seventh day after infection, the presence of virus-specific antigen was established through indirect immunofluorescence assay using anti-HIV antibodies.

[2] = in vivo; details: mouse, in vivo
Procedure: (§1) Intravenous and intramuscular injections were given of 2000 mg/kg and less in two stages. The follow-up period was 14 days. The lethal dose (LD50) was calculated by the Kerber technique. […] 31, 1987.

[3] = test system: ristal-strain mongrel white mice; experiment: in vivo
Procedure: as §1

[4] = test system: interferon; experiment: Interferon-inducing activity in mice (titers in blood); type: in vivo, BALB mice; details: for Interferon titer: dose (mg/kg): cycloferone 200, thylorone 50, prototype 400-600
Procedure: At predetermined time intervals interferon titers were measured in the blood by conventional techniques on homologous cells […] grown in 96-well plates in a CO2 -containing incubator. The test-virus was the encephalomyocarditis virus.

[5] = test system: C trachomatis; details: 100 mg/kg daily for 5 days
Procedure: Experiments were performed involving C trachomatis infection of non-line whim mice weighing 16-18 grams. […] Alternatively, a single tetracycline hydrochloride injection (100 mg/kg) was administered on conventional schedule for 5 days.
Therapeutic effectiveness was evaluated by cytoscopic examination of stained smears from lymph nodes and the lung for pathogenic multiplication.

[6] = test system: B-lymphocytes; experiment: Interferon induction in cell culture, B-lymphocytes; type: cell-based, BALB mice
From the text: (§2) The initial concentration was 5×10^6 cells/milliliter. The dynamics of interferon accumulation were studied in the cultural fluid of the lymphocytes grown on plastic plates in the presence of CO2.

[7] = test system: T-lymphocytes; experiment: Interferon induction in cell culture, T-lymphocytes; type: cell-based, BALB mice
From the text: as §2

[8] = test system: Splenocytes; experiment: Interferon induction in cell culture, splenocytes; type: cell-based, BALB mice
From the text: as §2

[9] = test system: hepatocytes (liver); experiment: Anti-promotive activity: hepatocytic cohesion; type: in vivo, BALB/c mice
Procedure: Studies were performed on female BALB/c mice weighing 25.0 grams.
The compounds were administered daily for 6 days in optimal doses. Controls were given physiological solution. Six hours after the last injection the animals were sacrificed. Sections of the lung and liver were cut out, submerged in 199 medium, and cellular cohesion was measured. Measurements were performed with a micro-manipulator by modified Kuman technique. See Modianova E. A., Voprosy onkologii, 19(6): 83-88 (1973).
For each experimental point, cellular cohesion was measured in 4-5 mice. One tissue segment from each of the mice measuring 10-30 cells was examined.

[10] = test system: Peripheral-blood lymphocytes; experiment: Interferon induction in cell culture, peripheral-blood lymphocytes; type: cell-based, BALB mice
From the text: as §2

Cc1cn([C@H]2C[C@H](N=[N+]=[N-])[C@@H](CO)O2)c(=O)[nH]c1=O [Azidothymidine, azidothymidine]
Number of cells containing HIV antigen by IIFR ([1]; Day 5): 6.5%
Number of cells containing HIV antigen by IIFR ([1]; Day 7): 4.7%

CN(C)CCOC(=O)Cn1c2ccccc2c(=O)c2ccccc21 [10-carboxymethyl-9-acridone dimethyl-aminoethylether chlorhydrate]
LD50 at 336 h ([2]; im): 600 mg/kg
LD50 at 336 h ([2]; iv): 400 mg/kg
toxicity upon parenteral application ([3]; parenteral): low-toxicity
level of toxicity compared to the compound of the present invention ([3]; words, vs cycloferone): same level of toxicity
Interferon titer ([4]; 2 hours): 100 IU/ml
Interferon titer ([4]; 4 hours): 1000 IU/ml
interferonogenic activity compared to the compound of the present invention ([4]; words, vs cycloferone): lower interferonogenic activity

CN(C)C1C(=O)C(C(N)=O)=C(O)C2(O)C(=O)C3=C(O)c4c(O)cccc4C(C)(O)C3CC12 (stereo not shown) [Tetracycline hydrochloride, tetracycline hydrochloride]
Effectiveness Index ([5]; lung, 3 days): 1.8
Effectiveness Index ([5]; lung, 7 days): 1.0
Effectiveness Index ([5]; lymph nodes, 3 days): 0.9
Effectiveness Index ([5]; lymph nodes, 7 days): 0.6

CCN(CC)CCOc1ccc2c(c1)C(=O)c1cc(OCCN(CC)CC)ccc1-2 [Thylorone]
Interferon titer ([6]; 24 hr): 15
Interferon titer ([6]; 48 hr): 30
Interferon titer ([6]; 72 hr): 320
Interferon titer ([6]; 96 hr): < 10
Interferon titer ([6]; 120 hr): < 10
Interferon titer ([6]; 144 hr): 5
Interferon titer ([7]; 24 hr): 15
Interferon titer ([7]; 48 hr): 60
Interferon titer ([7]; 72 hr): 5000
Interferon titer ([7]; 96 hr): 3600
Interferon titer ([7]; 120 hr): 960
Interferon titer ([7]; 144 hr): 5
Interferon titer ([8]; 24 hr): 15
Interferon titer ([8]; 48 hr): 30
Interferon titer ([8]; 72 hr): 640
Interferon titer ([8]; 96 hr): 320
Interferon titer ([8]; 120 hr): 15
Interferon titer ([8]; 144 hr): < 5
Interferon titer ([4]; 1 hour): < 40 IU/ml
Interferon titer ([4]; 2 hours): < 40 IU/ml
Interferon titer ([4]; 4 hours): < 40 IU/ml
Interferon titer ([4]; 8 hours): 40 IU/ml
Interferon titer ([4]; 18 hours): 640 IU/ml
Interferon titer ([4]; 24 hours): 20 IU/ml
Interferon titer ([4]; 48 hours): < 10 IU/ml
Hepatocytic Cohesion ([9]; Intraperitoneal, 10.0 mg/kg, P >0.05): 0.053 ± 0.008 mg/1 cell
hepatocytic cohesion indices compared to controls ([9]; words, vs controls): the same as in the controls
Interferon titer ([10]; 24 hr): 40
Interferon titer ([10]; 48 hr): 80
Interferon titer ([10]; 72 hr): 320
Interferon titer ([10]; 96 hr): 80
Interferon titer ([10]; 120 hr): 10
Interferon titer ([10]; 144 hr): < 10
